What was measured:
[1] = test system: carrageenan-induced paw edema; test: Carrageenan paw test (hind paw edema, plethysmometer); format: in vivo, male Long Evans derived rats; conditions: for Result (Reduction of Edema): 1 h before carrageenan, paw volume 3 h after injection
Description: In this test, the test compound is administered to several rats. Thereafter, a paw on each rat is injected with a solution of carrageenan in order to induce edema in the paw as a measure of inflammation. After three hours, the volume of the paw is measured using a plethysmometer. Reduction of edema by 30% or more, as compared to a control group which was not given the test compound, is considered indicative of anti-inflammatory activity.
This very pure form of R-flurbiprofen, was tested for anti-inflammatory activity by the carrageenan paw test. Seven groups of eight male Long Evans derived rats weighing 150±20 grams were fasted overnight. One hour after oral administration a suspension of the test substance in 2% Tween 80, as documented in Table 1 below, the right hind paw of each rat was injected intraplantarly with 0.1 ml of a 1% suspension of carrageenan. Three hours after injection, the hind paw volume was measured using a plethysmometer and recorded.

[2] = humans; cited from earlier work
[3] = test system: carrageenan-induced paw edema; conditions: cited from earlier work; for reduction of edema: dosage of 0.3 mg/kg, enantiomeric purity not disclosed

CC(=O)Oc1ccccc1C(=O)O [Aspirin, reference compound]
Anti-Inflammatory Activity ([1]; 150 mg/kg oral): Yes (Reduction of edema by 30% or more, as compared to a control group which was not given the test compound, is considered indicative of anti-inflammatory activity)
Result (Reduction of Edema) ([1]; 150 mg/kg oral): 42%

C[C@@H](C(=O)O)c1ccc(-c2ccccc2)c(F)c1 [R-Flurbiprofen, R-flurbiprofen]
S-enantiomer in circulation at steady state (formed by inversion of the R-enantiomer) [2]: 1.5%
reduction of edema [3]: 18%
reduction in inflammation ([3]; highest dose, 2.5 mg/kg (not at 0.1, 0.3, 1 mg/kg)): statistically significant reduction in inflammation
Anti-Inflammatory Activity ([1]; 5 mg/kg oral): Yes (Reduction of edema by 30% or more, as compared to a control group which was not given the test compound, is considered indicative of anti-inflammatory activity)
Result (Reduction of Edema) ([1]; 5 mg/kg oral): 30%
Anti-Inflammatory Activity ([1]; 10 mg/kg oral): Yes (Reduction of edema by 30% or more, as compared to a control group which was not given the test compound, is considered indicative of anti-inflammatory activity)
Result (Reduction of Edema) ([1]; 10 mg/kg oral): 41%
Anti-Inflammatory Activity ([1]; 20 mg/kg oral): Yes (Reduction of edema by 30% or more, as compared to a control group which was not given the test compound, is considered indicative of anti-inflammatory activity)
Result (Reduction of Edema) ([1]; 20 mg/kg oral): 47%
Anti-Inflammatory Activity ([1]; 40 mg/kg oral): Yes (Reduction of edema by 30% or more, as compared to a control group which was not given the test compound, is considered indicative of anti-inflammatory activity)
Result (Reduction of Edema) ([1]; 40 mg/kg oral): 51%

CCc1cccc2c3c([nH]c12)[C@@](CC)(CC(=O)O)OCC3 [R-etodolac]
S-enantiomer in circulation at steady state (formed by inversion of the R-enantiomer) [2]: 0%

O=C(c1ccccc1)c1ccc2n1CC[C@H]2C(=O)O [R-ketorolac]
S-enantiomer in circulation at steady state (formed by inversion of the R-enantiomer) [2]: 6%

C[C@H](C(=O)O)c1ccc(-c2ccccc2)c(F)c1 [S-flurbiprofen, reference compound]
reduction of edema [3]: 64%

From patent US6472433B2, “Method for treatment of inflammation with R-NSAIDS” (Loma Linda University Medical Center, priority 1999, dated 2002)
